Target: Histamine H3 receptor (Homo sapiens, UniProt Q9Y5N1)
Sequence (Q9Y5N1 whole entry): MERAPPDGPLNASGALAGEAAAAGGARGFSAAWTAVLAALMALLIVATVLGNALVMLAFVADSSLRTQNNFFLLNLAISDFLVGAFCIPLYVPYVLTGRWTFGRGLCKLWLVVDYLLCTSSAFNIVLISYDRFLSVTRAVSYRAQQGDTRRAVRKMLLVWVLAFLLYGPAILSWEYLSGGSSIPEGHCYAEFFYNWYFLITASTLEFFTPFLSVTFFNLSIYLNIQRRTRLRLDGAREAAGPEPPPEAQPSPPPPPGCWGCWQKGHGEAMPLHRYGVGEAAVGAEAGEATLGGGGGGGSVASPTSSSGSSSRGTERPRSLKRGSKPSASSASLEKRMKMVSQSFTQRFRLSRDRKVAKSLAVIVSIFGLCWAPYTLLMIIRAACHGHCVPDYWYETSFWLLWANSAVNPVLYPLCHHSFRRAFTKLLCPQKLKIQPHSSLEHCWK

Row | Ki [µM] | Compound
1 | > 10 | CN/C([CH-][N+](=O)[O-])=[NH+]\CCSCc1ccc(CN(C)C)o1
2 | > 10 | COc1ccc(CN(CCN(C)C)c2ccccn2)cc1
3 | > 10 | N=C(N)SCCc1cnc[nH]1 [2-(3H-imidazol-4-yl)ethylsulfanylmethanimidamide]

Further lines, the molecule ahead of its results:

Row | Compound | Ki [µM]
4 | CNCCc1c[nH]cn1 [N(alpha)-Methylhistamine] | > 10
5 | c1nc(CC2CCNCC2)c[nH]1 [4-(1H-imidazol-4-ylmethyl)piperidine] | > 10
6 | c1c[nH]cn1 | > 10

Reference: BindingDB's records for PubMed 10347254 (R. W. Johnson Pharmaceutical Research Institute, 1999)
